Assay results as given in ChEMBL document CHEMBL3734677, “EVALUATION OF AROMATIC 6-SUBSTITUTED THIENOPYRIMIDINES AS SCAFFOLDS AGAINST PARASITES THAT CAUSE TRYPANOSOMIASIS, LEISHMANIASIS, AND MALARIA” (Medchemcomm, 2015).
pEC50: −log10 of the molar value.

Columns and labels:
Trypanosoma brucei [1] = assay: Antiparasitic activity against Trypanosoma brucei after 48 hrs by cytometry; assay type: functional, organism-based
Trypanosoma cruzi [2] = assay: Antiparasitic activity against Trypanosoma cruzi at 10 uM; assay type: functional
Leishmania major [3] = assay: Antiparasitic activity against Leishmania major amastigotes; assay type: functional, organism-based; conditions: for pEC50: Leishmania major, read-out: EC50
Leishmania major [4] = assay: Antiparasitic activity against Leishmania major promastigotes; assay type: functional, organism-based; conditions: for pEC50: Leishmania major, read-out: EC50
Plasmodium falciparum = assay: Antiparasitic activity against Plasmodium falciparum D6; assay type: functional, organism-based; conditions: for pEC50: Plasmodium falciparum, D6, read-out: EC50
HepG2 = assay: (§1) Cytotoxicity against human HepG2 cells by MTT assay; assay type: cell-based; conditions: hepg2
[5] = Selectivity ratio, ratio of EC50 for Plasmodium falciparum W2 to EC50 for Plasmodium falciparum D6; assay type: functional
[6] = Selectivity ratio, ratio of EC50 for Plasmodium falciparum C235 to EC50 for Plasmodium falciparum D6; assay type: functional
Trypanosoma brucei [7] = assay: Antiparasitic activity against Trypanosoma brucei at 5 uM after 48 hrs by cytometry; assay type: functional
Trypanosoma cruzi [8] = assay: Antiparasitic activity against Trypanosoma cruzi; assay type: functional, organism-based
[9] = as §1; assay type: cell-based; conditions: HepG2 cells, read-out: TC50 (the source's name)
[10] = Aqueous solubility of compound; assay type: physicochemical; conditions: buffer
[11] = Plasma protein binding in human; assay type: ADME, cell-free
[12] = Metabolic stability in human microsomes; assay type: ADME, Microsome
[13] = Metabolic stability in rat Hepatocytes; assay type: ADME, cell-based, Hepatocyte

Structure (SMILES)	pEC50 (Trypanosoma brucei [1])	inhibition at 10 µM (Trypanosoma cruzi [2])	pEC50 (Leishmania major [3])	pEC50 (Leishmania major [4])	pEC50 (Plasmodium falciparum)	Activity (HepG2)	Ratio EC50 [5]	Ratio EC50 [6]	inhibition at 5 µM (Trypanosoma brucei [7])	pEC50 (Trypanosoma cruzi [8])	CC50 [9]	solubility [10]	PPB [11]	Stability [12]	Stability [13]	EC50 (Leishmania major [3])	EC50 (Leishmania major [4])	EC50 (Plasmodium falciparum)
Cc1cc(-c2cc3c(Nc4ccc(OCc5cccc(F)c5)c(Cl)c4)ncnc3s2)cnc1N1CCOCC1	6.38	29%	< 5.52	< 5.52	6.55	Non-toxic	< 3	< 3	–	–	–	–	–	–	–	–	–	–
Fc1cccc(COc2ccc(Nc3ncnc4sc(-c5ccc(CN6CCOCC6)cc5)cc34)cc2Cl)c1	–	–	5.38	< 4.70	7.05	Non-toxic	< 3	< 3	60%	5.77	–	–	–	–	–	–	–	–
Fc1cccc(COc2ccc(Nc3ncnc4cc(-c5ccccc5Oc5ccccc5)sc34)cc2Cl)c1	–	–	5.46	< 4.70	5.21	Non-toxic	–	–	10%	< 4.30	–	–	–	–	–	–	–	–
Oc1ccc(-c2ccc3ncnc(Nc4ccc(OCc5cccc(F)c5)c(Cl)c4)c3c2)cc1	5.19	–	< 4.82	< 4.70	< 4.70	Non-toxic	–	–	–	< 4.30	–	–	–	–	–	–	–	–
Cc1cc(-c2ccc3ncnc(Nc4ccc(OCc5cccc(F)c5)c(Cl)c4)c3c2)cnc1N1CCOCC1	6.00	49%	5.94	< 4.70	6.59	Non-toxic	< 3	< 3	–	–	–	–	–	–	–	–	–	–
CS(=O)(=O)c1cccc(-c2ccc3ncnc(Nc4ccc(OCc5cccc(F)c5)c(Cl)c4)c3c2)c1	5.49	–	5.33	5.46	6.28	Non-toxic	< 3	< 3	–	5.30	–	–	–	–	–	–	–	–
CC(C)(C)OCc1ccc(-c2ccc3ncnc(Nc4ccc(OCc5cccc(F)c5)c(Cl)c4)c3c2)cc1	6.66	–	5.39	< 4.70	6.22	Non-toxic	–	–	–	5.66	–	–	–	–	–	–	–	–
O=C(c1cccc(-c2cc3c(Nc4ccc(OCc5cccc(F)c5)c(Cl)c4)ncnc3s2)c1)N1CCCCC1	6.48	–	< 4.82	< 4.70	5.68	Non-toxic	–	–	–	< 4.30	–	–	–	–	–	–	–	–
O=C(c1cccc(-c2cc3ncnc(Nc4ccc(OCc5cccc(F)c5)c(Cl)c4)c3s2)c1)N1CCCCC1	–	–	5.51	< 4.70	5.93	Non-toxic	–	–	46%	5.49	–	–	–	–	–	–	–	–
Oc1ccc(-c2cc3ncnc(Nc4ccc(OCc5cccc(F)c5)c(Cl)c4)c3s2)cc1	5.66	–	5.80	< 4.70	6.36	Non-toxic	–	–	–	6.12	–	–	–	–	–	–	–	–
Fc1cccc(COc2ccc(Nc3ncnc4ccc(-c5ccc(N6CCOCC6)cc5)cc34)cc2Cl)c1	5.72	10.1%	< 4.82	5.36	6.57	–	–	–	–	–	9.6 µM	–	–	–	–	–	–	–
CS(=O)(=O)c1cccc(-c2cc3ncnc(Nc4ccc(OCc5cccc(F)c5)c(Cl)c4)c3s2)c1	5.85	–	< 5.52	< 5.52	6.19	Non-toxic	< 3	< 3	–	5.57	–	–	–	–	–	–	–	–
Fc1cccc(COc2ccc(Nc3ncnc4ccc(-c5ccc(CN6CCOCC6)cc5)cc34)cc2Cl)c1	6.00	–	5.23	5.56	7.20	–	< 3	< 3	–	6.22	12.9 µM	–	–	–	–	–	–	–
Fc1cccc(COc2ccc(Nc3ncnc4ccc(-c5ccccc5Oc5ccccc5)cc34)cc2Cl)c1	–	–	< 4.82	5.16	5.24	Non-toxic	–	–	–	–	–	–	–	–	–	–	–	–
Fc1cccc(COc2ccc(Nc3ncnc4cc(-c5ccccc5)sc34)cc2Cl)c1	5.55	0%	< 4.82	5.09	5.53	Non-toxic	–	–	–	–	–	–	–	–	–	–	–	–
Fc1cccc(COc2ccc(Nc3ncnc4ccc(-c5ccccc5)cc34)cc2Cl)c1	5.41	–	< 4.82	5.39	6.10	–	–	–	–	5.74	4.9 µM	–	–	–	–	–	–	–
Cc1cc(-c2cc3ncnc(Nc4ccc(OCc5cccc(F)c5)c(Cl)c4)c3s2)cnc1N1CCOCC1	7.08	–	< 5.52	< 5.52	6.64	Non-toxic	< 3	< 3	–	5.48	–	< 1 µM	> 99%	Stable	Stable	–	–	–
CC(C)(C)OCc1ccc(-c2cc3c(Nc4ccc(OCc5cccc(F)c5)c(Cl)c4)ncnc3s2)cc1	5.80	17%	5.69	< 4.70	5.11	Non-toxic	–	–	–	–	–	–	–	–	–	–	–	–
Fc1cccc(COc2ccc(Nc3ncnc4cc(-c5cc6ccccc6s5)sc34)cc2Cl)c1	–	–	< 4.82	< 4.70	< 4.82	Non-toxic	–	–	8%	< 4.30	–	–	–	–	–	–	–	–

Structure (SMILES)	pEC50 (Trypanosoma brucei [1])	inhibition at 10 µM (Trypanosoma cruzi [2])	pEC50 (Leishmania major [3])	pEC50 (Leishmania major [4])	pEC50 (Plasmodium falciparum)	Activity (HepG2)	Ratio EC50 [5]	Ratio EC50 [6]	inhibition at 5 µM (Trypanosoma brucei [7])	pEC50 (Trypanosoma cruzi [8])	CC50 [9]	solubility [10]	PPB [11]	Stability [12]	Stability [13]	EC50 (Leishmania major [3])	EC50 (Leishmania major [4])	EC50 (Plasmodium falciparum)
CS(=O)(=O)c1cccc(-c2cc3c(Nc4ccc(OCc5cccc(F)c5)c(Cl)c4)ncnc3s2)c1	5.89	–	< 4.82	4.93	6.28	Non-toxic	< 3	< 3	–	5.62	–	–	–	–	–	–	–	–
Fc1cccc(COc2ccc(Nc3ncnc4cc(-c5cccc(N6CCOCC6)c5)sc34)cc2Cl)c1	–	–	5.27	< 4.70	6.07	Non-toxic	–	–	42%	< 4.30	–	–	–	–	–	–	–	–
CC(C)(C)NS(=O)(=O)c1ccccc1-c1cc2ncnc(Nc3ccc(OCc4cccc(F)c4)c(Cl)c3)c2s1	5.92	–	5.63	< 4.70	5.97	Non-toxic	–	–	–	6.17	–	–	–	–	–	–	–	–
CS(=O)(=O)CCNCc1ccc(-c2ccc3ncnc(Nc4ccc(OCc5cccc(F)c5)c(Cl)c4)c3c2)o1 [LAPATINIB]	–	–	–	–	–	–	–	–	–	–	> 35 µM	–	–	–	–	–	–	–
Fc1cccc(COc2ccc(Nc3ncnc4ccc(-c5cc6ccccc6s5)cc34)cc2Cl)c1	5.22	–	< 4.82	< 4.70	6.04	Non-toxic	–	–	–	< 4.30	–	–	–	–	–	–	–	–
Fc1cccc(COc2ccc(Nc3ncnc4sc(-c5cc6ccccc6s5)cc34)cc2Cl)c1	5.54	49%	< 5.52	< 5.52	< 5.40	Non-toxic	–	–	–	–	–	–	–	–	–	–	–	–
Fc1cccc(COc2ccc(Nc3ncnc4ccc(-c5cccc(N6CCOCC6)c5)cc34)cc2Cl)c1	–	–	5.10	–	–	Non-toxic	–	–	–	–	–	< 1 µM	> 99%	Stable	Stable	–	–	–
O=C(c1cccc(-c2ccc3ncnc(Nc4ccc(OCc5cccc(F)c5)c(Cl)c4)c3c2)c1)N1CCCCC1	–	–	< 4.82	< 5.52	6.29	Non-toxic	–	–	–	< 4.30	–	–	–	–	–	–	–	–
Fc1cccc(COc2ccc(Nc3ncnc4cc(-c5ccc(CN6CCOCC6)cc5)sc34)cc2Cl)c1	5.96	–	< 4.82	6.66	7.57	Non-toxic	–	< 3	–	< 4.30	–	–	–	–	–	–	–	–
Fc1cccc(COc2ccc(Nc3ncnc4sc(-c5cccc(N6CCOCC6)c5)cc34)cc2Cl)c1	6.40	–	5.59	< 4.70	6.28	Non-toxic	–	–	–	5.66	–	–	–	–	–	–	–	–
CC(C)(C)NS(=O)(=O)c1ccccc1-c1cc2c(Nc3ccc(OCc4cccc(F)c4)c(Cl)c3)ncnc2s1	6.30	–	< 4.82	< 4.70	< 4.82	Non-toxic	–	–	–	< 4.30	–	–	–	–	–	–	–	–
CC(C)(C)OCc1ccc(-c2cc3ncnc(Nc4ccc(OCc5cccc(F)c5)c(Cl)c4)c3s2)cc1	6.05	–	< 4.82	< 4.70	5.78	Non-toxic	–	–	–	4.52	–	–	–	–	–	–	–	–
CC(C)(C)NS(=O)(=O)c1ccccc1-c1ccc2ncnc(Nc3ccc(OCc4cccc(F)c4)c(Cl)c3)c2c1	5.33	–	–	–	–	Non-toxic	–	–	–	5.19	–	–	–	–	–	ND(Insoluble)	ND(Insoluble)	ND(Insoluble)
Fc1cccc(COc2ccc(Nc3ncnc4ccccc34)cc2Cl)c1	5.89	–	4.91	5.76	5.27	Non-toxic	–	–	–	5.62	–	–	–	–	–	–	–	–
Fc1cccc(COc2ccc(Nc3ncnc4sc(-c5ccccc5Oc5ccccc5)cc34)cc2Cl)c1	5.92	45%	< 4.82	< 4.70	4.97	Non-toxic	–	–	–	–	–	–	–	–	–	–	–	–
Fc1cccc(COc2ccc(Nc3ncnc4cc(-c5ccc(N6CCOCC6)cc5)sc34)cc2Cl)c1	6.33	0%	< 4.82	< 4.70	5.51	Non-toxic	–	–	–	–	–	–	–	–	–	–	–	–
Fc1cccc(COc2ccc(Nc3ncnc4ccsc34)cc2Cl)c1	–	–	< 4.82	5.25	4.79	Non-toxic	–	–	1%	4.57	–	–	–	–	–	–	–	–
Fc1cccc(COc2ccc(Nc3ncnc4sc(-c5ccccc5)cc34)cc2Cl)c1	5.77	42%	< 4.82	< 4.70	< 4.70	–	–	–	–	–	10 µM	–	–	–	–	–	–	–
